This note sets out measurements from publication PMC12957798, “Adaptation of plateau frog peptide: From antimicrobial to angiogenic and proliferative functions” (Journal of Advanced Research, 2025).

One experiment relates to A. baumannil ATCC1968. Briefly: Broth microdilution MIC, A. baumannii. Particulars: positive control, 37 °C, 24 h, OD600. In kind it is cell-based, Acinetobacter baumannii. The method, then: (§1) Disk diffusion and broth microdilution tests were selected as the standard method for screening the antimicrobial activity of SC17-2 [58]. The experiments were conducted utilising the disk diffusion test, whereby the following strains were examined: Acinetobacter baumannii (ATCC 19606), Candida auris (ATCC 10231), Pseudomonas aeruginosa (ATCC 27853) and Staphylococcus aureus (ATCC 6538). The concentration of bacterial suspension was then adjusted to 1 × 10^5 CFU/mL with saline, after which it was set aside. Separate plates containing bacterial agar were prepared: MH agar was utilised for the isolation of bacterial samples, while Sartorius agar was employed for the isolation of fungal samples. The suspensions containing the aforementioned microorganisms were then spread on the designated plates at a rate of 1:1000. A sterile filter paper was used to dispense 1 mL of SC17-2 (10 mg/mL), with equal amounts of PBS and Vancomycin/Colistin serving as controls. The plates were then subjected to the appropriate temperature (24 h at 37 °C) and subsequently observed under a camera to ascertain the results. […] At the conclusion of this period, the absorbance was measured using a Microplate Reader (Synergy H1, BioTek, USA) with a wavelength of 600 nm. […]
On the technique in general: In broth dilution the organism is exposed to a series of concentrations in liquid medium.

Another experiment deals with S. aureus ATCC6538. Briefly: Broth microdilution MIC, S. aureus. In kind it is cell-based, Staphylococcus aureus. More on the design: unit not given beside the values. To be noted: positive control, 37 °C, 24 h, OD600. The method, then: as §1
Experiment [1] has as its system Escherichia coli ATCC2771. Briefly: Broth microdilution MIC, E. coli. The experiment is classed as cell-based. More on the design: unit not given beside the values. Particulars: positive control, 37 °C, 24 h, OD600. The method, then: as §1
The next experiment concerns p-ERK/ERK. Briefly: Western blot p-ERK/ERK in HaCaT. The experiment is classed as cell-based, Human. To be noted: VEGF, n = 3. As to the method:
(§2) HaCaT was inoculated in 12-well plates (2 × 10^5 cells/well) and cultured for 24 h. Afterwards, HaCaT cells were treated with equal amounts of VEGF, SC17-2, and PBS for 16 h. Cells were washed with PBS, after which the samples were collected and added to 1 mL of RIPA lysate containing protease inhibitors and phosphatase inhibitors and placed on ice for 30 min. Allowed to be after sufficient lysis, the supernatant was centrifuged and collected to determine the protein concentration using a nanodrop, followed by the addition of SDS sampling buffer and heating at 95 °C for 10 min. Samples were loaded and run on a gel block based on the determined sample concentration, and then electrotransferred onto a 0.45 μm PVDF membrane. […] After washing three times with TBST, proteins were visualised and scanned by enhanced chemiluminescence using the ChemiDoc XRS imaging system (Bio-Rad, Hercules, CA, USA).
Background: A western blot detects proteins with antibodies after separation by electrophoresis.

A further experiment deals with BALB/c mice. The experiment in a line: Mouse full-thickness skin wound healing. In kind it is in vivo. Particulars: day 13, VEGF 20 ng/mL, 20 μL daily on wound, relative to day 1, mean ± SEM, n = 7. As to the method:
Mice were anaesthetised with sodium pentobarbital 2 % by intraperitoneal injection (0.1 mL/20 g mouse body weight), and after anaesthesia, hair was removed from the back using depilatory cream and power scissors, and circular full-thickness skin wounds of the same diameter were marked and created on the back of each mouse using circular stamps and red sealant. The mouse wounds were then covered and infiltrated daily with 20 μL of different concentrations of SC17-2 or 20 ng/mL VEGF, and an equal volume of saline was used in the control group. The mice were anaesthetised by isoflurane nebulisation (concentration 2 %) every two days and then placed under an optical camera to photograph the effect of the wound area.
Sodium pentobarbital (2 %) was utilised for the anaesthetisation of mice by intraperitoneal injection (0.1 mL/20 g of mouse body weight). Subsequent to the induction of anaesthesia, the dorsal hair was removed using depilatory creams and electric scissors. Thereafter, circular full skin wounds of the same diameter were marked and created on the back of each mouse using circular stamps and red stencils. Mouse wounds were then covered and infiltrated daily with 20 μL of different concentrations of SC17-2 or 20 ng/mL of VEGF, and an equal volume of saline was used in the control group. Mice were anaesthetised every two days using isoflurane nebulisation followed by anaesthesia (concentration 2 %), after which they were placed under an optical camera to photograph the effect of wound area. After 13 days of treatment, mice were anaesthetised using isoflurane nebulisation followed by injection of an overdose of sodium pentobarbital to euthanise the mice (200 mg/kg). The wounds and their surrounding tissues were then excised for histopathological evaluation (Masson and H&E staining) and analysed by Enface immunofluorescence staining.

For another experiment, the system named is (p-Smad2/3)/(Smad2/3). The experiment in a line: Western blot p-Smad2/3 / Smad2/3 in HaCaT. In kind it is cell-based, Human. Particulars: VEGF, n = 3. The method, then:
as §2

In a further experiment the test system is TGF-β. The experiment in a line: Western blot TGF-β in HaCaT. The experiment is classed as cell-based, Human. Particulars: VEGF, n = 3. As to the method:
as §2

With `CN[C@H](CC(C)C)C(=O)N[C@H]1C(=O)N[C@@H](CC(N)=O)C(=O)N[C@H]2C(=O)N[C@H]3C(=O)N[C@H](C(=O)N[C@H](C(=O)O)c4cc(O)cc(O)c4-c4cc3ccc4O)[C@H](O)c3ccc(c(Cl)c3)Oc3cc2cc(c3O[C@@H]2O[C@H](CO)[C@@H](O)[C@H](O)[C@H]2O[C@H]2C[C@](C)(N)[C@H](O)[C@H](C)O2)Oc2ccc(cc2Cl)[C@H]1O` [Vancomycin], the MIC with A. baumannil ATCC1968 is reported as 0.78.
On to Colistin, for which the MIC (in the experiment with S. aureus ATCC6538; in experiment [1]) was 0.78 in each case.
As to VEGF, the ERK phosphorylation result in the experiment with p-ERK/ERK is given as “significantly increased ERK phosphorylation”. This molecule came in with a wound area with BALB/c mice of 7.04 ± 1.43%. The Smad2/3 phosphorylation result in the experiment with (p-Smad2/3)/(Smad2/3) was “significantly increased Smad2/3 phosphorylation”. Also, the “expression of TGF-β” value in the experiment with TGF-β is “significantly increase the expression of TGF-β”.
